Measurements taken from ChEMBL document CHEMBL1139857, “Target-based approach to inhibitors of histone arginine methyltransferases” (J Med Chem, 2007).
Calls of active or inactive are those of the source. No cut-off for these calls is given here.

Experiments:
RmtA = RmtA (Emericella nidulans, UniProt Q5VLE3); assay: Inhibition of Aspergillus nidulans RmtA by TRF assay
[1] = target: T1, Estrogen receptor (Homo sapiens) (UniProt P03372); assay: Inhibition of estradiol-mediated ERalpha activation in MCF-7-2a cells at 150 uM; type: cell-based; design: scale not given: the % may be the effect or the level left
T1 sequence (whole entry): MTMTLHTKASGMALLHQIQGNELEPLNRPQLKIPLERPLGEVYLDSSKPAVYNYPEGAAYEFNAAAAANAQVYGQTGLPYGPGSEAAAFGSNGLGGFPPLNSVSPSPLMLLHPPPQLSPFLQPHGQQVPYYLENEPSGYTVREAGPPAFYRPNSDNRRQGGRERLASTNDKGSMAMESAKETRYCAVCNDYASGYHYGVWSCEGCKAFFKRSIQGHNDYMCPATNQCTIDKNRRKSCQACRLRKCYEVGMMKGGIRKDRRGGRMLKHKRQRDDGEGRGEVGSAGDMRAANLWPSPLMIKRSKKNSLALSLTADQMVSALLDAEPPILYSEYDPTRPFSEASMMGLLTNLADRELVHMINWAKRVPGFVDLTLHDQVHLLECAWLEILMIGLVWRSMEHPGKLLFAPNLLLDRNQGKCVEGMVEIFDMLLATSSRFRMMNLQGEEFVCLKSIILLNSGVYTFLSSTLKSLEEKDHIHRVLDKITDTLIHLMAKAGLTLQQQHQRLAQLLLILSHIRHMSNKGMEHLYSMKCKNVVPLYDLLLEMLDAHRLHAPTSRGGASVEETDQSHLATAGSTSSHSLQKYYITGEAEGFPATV

[2] = target: RmtA (Emericella nidulans) (UniProt Q5VLE3); assay: Inhibition of Aspergillus nidulans RmtA at 10 uM by TRF assay
[3] = target: RmtA (Emericella nidulans) (UniProt Q5VLE3); assay: Inhibition of Aspergillus nidulans RmtA at 2 uM by TRF assay
[4] = target: T1, Estrogen receptor (Homo sapiens); assay: Inhibition of ERalpha activation in MCF-7-2a cells by reporter gene assay; type: cell-based
[5] = target: T2, Androgen receptor (Homo sapiens) (UniProt P10275); assay: Inhibition of androgen receptor activation in MCF-7-2a cells by reporter gene assay; type: cell-based
T2 sequence (whole entry): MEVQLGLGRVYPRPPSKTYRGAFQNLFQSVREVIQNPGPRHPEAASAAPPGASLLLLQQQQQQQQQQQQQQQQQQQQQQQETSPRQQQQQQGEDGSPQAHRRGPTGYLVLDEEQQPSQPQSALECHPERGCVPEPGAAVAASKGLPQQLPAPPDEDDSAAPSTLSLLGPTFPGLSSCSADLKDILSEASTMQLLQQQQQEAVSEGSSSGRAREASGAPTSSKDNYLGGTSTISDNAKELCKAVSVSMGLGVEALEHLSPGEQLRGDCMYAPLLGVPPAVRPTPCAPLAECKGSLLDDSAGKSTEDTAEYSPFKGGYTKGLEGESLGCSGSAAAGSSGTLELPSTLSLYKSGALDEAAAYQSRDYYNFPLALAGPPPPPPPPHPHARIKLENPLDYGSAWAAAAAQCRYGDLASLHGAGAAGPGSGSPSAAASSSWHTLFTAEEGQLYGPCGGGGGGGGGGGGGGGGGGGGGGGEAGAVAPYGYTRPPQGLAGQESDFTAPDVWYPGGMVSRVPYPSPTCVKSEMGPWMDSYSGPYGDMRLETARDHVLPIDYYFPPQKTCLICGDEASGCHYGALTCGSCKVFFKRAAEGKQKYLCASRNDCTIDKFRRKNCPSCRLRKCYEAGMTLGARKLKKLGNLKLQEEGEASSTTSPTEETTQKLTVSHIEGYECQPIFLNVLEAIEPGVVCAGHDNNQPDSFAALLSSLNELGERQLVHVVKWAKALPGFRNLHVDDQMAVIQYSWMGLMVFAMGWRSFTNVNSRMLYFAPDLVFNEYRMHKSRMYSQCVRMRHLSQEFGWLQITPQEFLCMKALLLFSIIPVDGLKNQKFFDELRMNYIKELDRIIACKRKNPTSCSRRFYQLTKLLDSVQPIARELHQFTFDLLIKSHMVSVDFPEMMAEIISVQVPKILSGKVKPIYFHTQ

Chain of RmtA (Emericella nidulans) (Q5VLE3 as listed by the source): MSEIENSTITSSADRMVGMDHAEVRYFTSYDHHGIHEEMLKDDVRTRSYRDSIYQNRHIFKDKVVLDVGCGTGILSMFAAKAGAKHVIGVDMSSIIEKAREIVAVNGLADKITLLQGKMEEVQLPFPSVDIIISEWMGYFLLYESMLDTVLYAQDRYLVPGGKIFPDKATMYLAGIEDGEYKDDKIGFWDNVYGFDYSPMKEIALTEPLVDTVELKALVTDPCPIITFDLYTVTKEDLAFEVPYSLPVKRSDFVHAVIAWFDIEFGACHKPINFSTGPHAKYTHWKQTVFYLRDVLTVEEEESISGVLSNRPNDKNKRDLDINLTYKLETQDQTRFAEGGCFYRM
Chain of RmtA (Q5VLE3 whole entry): as the sequence (Q5VLE3 as listed by the source) above

Compound | IC50 (RmtA) | inhibition [2] | inhibition [3] | other results
Nc1ccc(S(=O)(=O)c2ccc(NCN3C(=O)NC(=O)C(=O)C3=O)cc2)cc1 [ALLANTODAPSONE] | 8.3 µM |  |  | 
N=C(N)c1ccc(/C=C/c2ccc(C(=N)N)cc2)cc1 [STILBAMIDINE] | 29.9 µM |  |  | Activity [1]: 75%
N=C(N)SCc1cc(Cl)cc(Cl)c1O |  | 83.9% | 18.3% | 
Cc1ccc(CNc2ncnc3[nH]cnc23)cc1 |  | 77% | 26.1% | 
CC(C)(CN)SCc1ccccc1 |  | 68.3% |  | Activity [3]: inactive
N=C(N)Nc1nc2cc([N+](=O)[O-])ccc2[nH]1 |  | 75.1% | 15.6% | 
O=C(Nc1ccc2c(O)cc(S(=O)(=O)O)cc2c1)Nc1ccc2c(O)cc(S(=O)(=O)O)cc2c1 | 33.8 µM |  |  | Activity [4]: Active; Activity [5]: Active; Activity [1]: Active
c1nc(NCCCc2c[nH]cn2)c2nc[nH]c2n1 |  | 64.7% | 34.9% | 
